Laboratory results from patent US20230339981A1, “KRAS G12D MODULATING COMPOUNDS” (priority 2022, published 2023).

Columns and labels:
GDP-loaded KRAS G12D = GDP-loaded KRAS G12D (Homo sapiens (Human), UniProt P01116, G12D); assay: KRAS G12D (GDP) biochemical assay (TR-FRET probe displacement); format: binding; conditions: 2 hours
Procedure: Example A. KRAS G12D (GDP) Biochemical Assay
Compounds were tested for binding to GDP-loaded KRAS G12D in a 384-well assay format using a TR-FRET probe displacement assay in buffer consisting of 50 mM Hepes (pH 7.4), 150 mM NaCl, 5 mM MgCl2 and 0.005% Tween-20. […] Compounds were serially diluted (1:3) in DMSO. The LabCyte ECHO Acoustic dispenser system was used to pre-spot the assay plates (384-well Non-Binding Surface plates, Corning, Catalog #3824) with 50 nL of compound. The compounds were pre-incubated with 5 μL of 2× final enzyme concentration for 30 minutes before adding 5 μL of 2× final concentration of Eu-streptavidin and TR-FRET probe (10 μL final reaction volume). The plates were incubated at room temperature for 2 hours before measuring TR-FRET ratio on the Envision plate reader. IC50 values were defined as the compound concentration that causes a 50% decrease in TR-FRET ratio and were calculated using a sigmoidal dose-response model to generate curve fits.

GP2D (KRAS G12D) cells = assay: 2D cell viability assay (CellTiter-Glo); format: cell-based; conditions: GP2d, 96 h, 4 days
Procedure: Example B. 2D Cell Viability Assay
Compounds were tested in a 384-well format for their ability to inhibit the viability of GP2D (KRAS G12D) cells in 2D assays. Compounds were serially diluted (1:3) in DMSO. The LabCyte ECHO Acoustic dispenser system was used to pre-spot assay plates with 200 nL of test molecule per well. 1000 cells/well (40 μL volume per well) in RPMI medium with 10% FBS, and Penicillin-Streptomycin-Glutamine were plated in pre-spotted 384-well plates (Greiner, Catalog #781076) on the BioTEK EL406 liquid dispenser with a 5 μL dispensing cassette (BioTek 7170011). The plates were incubated at 37° C., 5% CO2 for 4 days before addition of CellTiter-Glo (CTG) reagent and measurement of luminescence signal. EC50 values were defined as the compound concentration that causes a 50% decrease in luminescence signal and were calculated using a sigmoidal dose-response model to generate curve fits.

GDP-loaded KRAS G12D, sequence (P01116-2 other isoform, or with tags, fused parts or gaps G12D): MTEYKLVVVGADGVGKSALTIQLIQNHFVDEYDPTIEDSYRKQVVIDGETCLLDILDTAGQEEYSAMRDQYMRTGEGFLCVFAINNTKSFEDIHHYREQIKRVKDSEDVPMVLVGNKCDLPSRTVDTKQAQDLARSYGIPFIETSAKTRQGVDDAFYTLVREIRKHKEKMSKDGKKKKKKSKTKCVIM

SMILES: C#Cc1c(F)ccc2cccc(-c3nc4c5c(nc(OC[C@@]67CCCN6C[C@H](F)C7)nc5c3F)N3C[C@H]5CC[C@H](N5)[C@@H]3[C@H](C)CC4)c12 [Example 159, (6R,6aS,7S,10R)-2-(8-ethynyl-7-fluoronaphthalen-1-yl)-1-fluoro-13-(((2R,7aS)-2-fluorotetrahydro-1H-pyrrolizin-7a(5H)-yl)methoxy)-6-methyl-5,6,6a,7,8,9,10,11-octahydro-4H-3,11a,12,14,15-pentaaza-7,10-methanocyclohepta[4,5]cycloocta[1,2,3-de]naphthalene]
- IC50 (GDP-loaded KRAS G12D): 100 nM
- EC50 (GP2D (KRAS G12D) cells): 100 nM

SMILES: C#Cc1c(F)ccc2cccc(-c3nc4c5c(nc(OC[C@@]67CCCN6C[C@H](F)C7)nc5c3F)N3C[C@H]5CC[C@H](N5)[C@@H]3[C@@H](C)CC4)c12 [Example 156, (6S,6aS,7S,10R)-2-(8-ethynyl-7-fluoronaphthalen-1-yl)-1-fluoro-13-(((2R,7aS)-2-fluorotetrahydro-1H-pyrrolizin-7a(5H)-yl)methoxy)-6-methyl-5,6,6a,7,8,9,10,11-octahydro-4H-3,11a,12,14,15-pentaaza-7,10-methanocyclohepta[4,5]cycloocta[1,2,3-de]naphthalene]
- IC50 (GDP-loaded KRAS G12D): 100 nM
- EC50 (GP2D (KRAS G12D) cells): 100 nM

SMILES: C#Cc1c(F)ccc2cccc(-c3nc4c5c(nc(OC[C@@]67CCCN6C[C@H](F)C7)nc5c3F)N3C[C@H]5CC[C@H](N5)[C@H]3[C@H](C)C4)c12 [Example 184, (5R,5aR,6S,9R)-2-(8-ethynyl-7-fluoronaphthalen-1-yl)-1-fluoro-12-(((2R,7aS)-2-fluorotetrahydro-1H-pyrrolizin-7a(5H)-yl)methoxy)-5-methyl-4,5,5a,6,7,8,9,10-octahydro-3,10a,11,13,14-pentaaza-6,9-methanonaphtho[1,8-ab]heptalene]
- IC50 (GDP-loaded KRAS G12D): 0.7 nM
- EC50 (GP2D (KRAS G12D) cells): 19 nM

SMILES: C#Cc1c(F)ccc2cc(O)cc(-c3nc4c5c(nc(OC[C@@]67CCCN6C[C@H](F)C7)nc5c3F)N3C[C@H]5CC[C@H](N5)[C@H]3[C@@H](C)O4)c12 [Example 61, 5-ethynyl-6-fluoro-4-((5R,5aS,6S,9R)-1-fluoro-12-(((2R,7aS)-2-fluorotetrahydro-1H-pyrrolizin-7a(5H)-yl)methoxy)-5-methyl-5a,6,7,8,9,10-hexahydro-5H-4-oxa-3,10a,11,13,14-pentaaza-6,9-methanonaphtho[1,8-ab]heptalen-2-yl)naphthalen-2-ol]
- IC50 (GDP-loaded KRAS G12D): 26 nM
- EC50 (GP2D (KRAS G12D) cells): 520 nM

SMILES: C#Cc1c(F)ccc2cccc(-c3nc4c5c(nc(OC[C@@]67CCCN6C[C@H](F)C7)nc5c3F)N3C[C@H]5CC[C@H](N5)[C@H]3CCCC4)c12 [Example 188, (7aR,8S,11R)-2-(8-ethynyl-7-fluoronaphthalen-1-yl)-1-fluoro-14-(((2R,7aS)-2-fluorotetrahydro-1H-pyrrolizin-7a(5H)-yl)methoxy)-4,5,6,7,7a,8,9,10,11,12-decahydro-3,12a,13,15,16-pentaaza-8,11-methanocyclohepta[4,5]cyclonona[1,2,3-de]naphthalene]
- IC50 (GDP-loaded KRAS G12D): 0.2 nM
- EC50 (GP2D (KRAS G12D) cells): 100 nM

SMILES: Oc1cc(-c2nc3c4c(nc(OCC5(CN6CC[C@H](OC(F)(F)F)C6)CC5)nc4c2F)N2C[C@H]4CC[C@H](N4)[C@H]2CC3)c2c(OC(F)(F)F)c(F)ccc2c1 [Example 103, 6-fluoro-4-((5aR,6S,9R)-1-fluoro-12-((1-(((S)-3-(trifluoromethoxy)pyrrolidin-1-yl)methyl)cyclopropyl)methoxy)-4,5,5a,6,7,8,9,10-octahydro-3,10a,11,13,14-pentaaza-6,9-methanonaphtho[1,8-ab]heptalen-2-yl)-5-(trifluoromethoxy)naphthalen-2-ol]
- IC50 (GDP-loaded KRAS G12D): 5.3 nM
- EC50 (GP2D (KRAS G12D) cells): 62.6 nM

SMILES: C#Cc1c(F)ccc2cccc(-c3nc4c5c(nc(OC[C@@]67CCCN6[C@H](COc6cnc(C(F)(F)F)cn6)CC7)nc5c3F)N3C[C@H]5CC[C@H](N5)[C@H]3CCC4)c12 [Example 197, (6aR,7S,10R)-2-(8-ethynyl-7-fluoronaphthalen-1-yl)-1-fluoro-13-(((3S,7aS)-3-(((5-(trifluoromethyl)pyrazin-2-yl)oxy)methyl)tetrahydro-1H-pyrrolizin-7a(5H)-yl)methoxy)-5,6,6a,7,8,9,10,11-octahydro-4H-3,11a,12,14,15-pentaaza-7,10-methanocyclohepta[4,5]cycloocta[1,2,3-de]naphthalene]
- IC50 (GDP-loaded KRAS G12D): 0.04 nM
- EC50 (GP2D (KRAS G12D) cells): 2.4 nM

SMILES: C#Cc1c(F)ccc2cccc(-c3nc4c5c(nc(OC[C@@]67CCCN6C[C@H](F)C7)nc5c3F)N3C[C@H]5CC[C@H](N5)[C@@H]3[C@@H](C)C4)c12 [Example 84, (5S,5aS,6S,9R)-2-(8-ethynyl-7-fluoronaphthalen-1-yl)-1-fluoro-12-(((2R,7aS)-2-fluorotetrahydro-1H-pyrrolizin-7a(5H)-yl)methoxy)-5-methyl-4,5,5a,6,7,8,9,10-octahydro-3,10a,11,13,14-pentaaza-6,9-methanonaphtho[1,8-ab]heptalene]
- IC50 (GDP-loaded KRAS G12D): 3.9 nM
- EC50 (GP2D (KRAS G12D) cells): 27.7 nM

SMILES: C#Cc1c(F)ccc2cccc(-c3nc4c5c(nc(OC[C@@]67CCCN6[C@H](CF)CC7)nc5c3F)N3C[C@H]5CC[C@H](N5)[C@H]3CC[C@H]4C)c12 [Example 195, (4R,6aR,7S,10R)-2-(8-ethynyl-7-fluoronaphthalen-1-yl)-1-fluoro-13-(((3S,7aS)-3-(fluoromethyl)tetrahydro-1H-pyrrolizin-7a(5H)-yl)methoxy)-4-methyl-5,6,6a,7,8,9,10,11-octahydro-4H-3,11a,12,14,15-pentaaza-7,10-methanocyclohepta[4,5]cycloocta[1,2,3-de]naphthalene]
- IC50 (GDP-loaded KRAS G12D): 0.07 nM
- EC50 (GP2D (KRAS G12D) cells): 1.5 nM

SMILES: C#Cc1c(F)ccc2cc(O)cc(-c3nc4c5c(nc(OCC6(CN7CC[C@H](OC(F)(F)F)C7)CC6)nc5c3F)N3C[C@H]5CC[C@H](N5)[C@H]3CCC4)c12 [Example 162]
- IC50 (GDP-loaded KRAS G12D): 0.4 nM
- EC50 (GP2D (KRAS G12D) cells): 0.5 nM

SMILES: C#Cc1c(F)ccc2cccc(-c3nc4c5c(nc(OC[C@]67CCCN6C[C@@H](OC(F)(F)F)C7)nc5c3F)N3C[C@H]5CC[C@H](N5)[C@H]3CC4)c12 (stereo in doubt) [Example 142, (5aR,6S,9R)-2-(8-ethynyl-7-fluoronaphthalen-1-yl)-1-fluoro-12-((trans-2-(trifluoromethoxy)tetrahydro-1H-pyrrolizin-7a(5H)-yl)methoxy)-4,5,5a,6,7,8,9,10-octahydro-3,10a,11,13,14-pentaaza-6,9-methanonaphtho[1,8-ab]heptalene]
- IC50 (GDP-loaded KRAS G12D): 3.6 nM
- EC50 (GP2D (KRAS G12D) cells): 94.8 nM

SMILES: Oc1cc(-c2nc3c4c(nc(OC[C@@]56CCCN5C[C@H](F)C6)nc4c2F)N2C[C@H]4CC[C@H](N4)[C@H]2CO3)c2c(F)c(F)c(F)cc2c1 [Example 11, 5,6,7-trifluoro-4-((5aS,6S,9R)-1-fluoro-12-(((2R,7aS)-2-fluorotetrahydro-1H-pyrrolizin-7a(5H)-yl)methoxy)-5a,6,7,8,9,10-hexahydro-5H-4-oxa-3,10a,11,13,14-pentaaza-6,9-methanonaphtho[1,8-ab]heptalen-2-yl)naphthalen-2-ol]
- IC50 (GDP-loaded KRAS G12D): 1 nM
- EC50 (GP2D (KRAS G12D) cells): 56 nM

SMILES: C#Cc1c(F)ccc2cc(N)cc(-c3cc4c5c(nc(OC[C@@]67CCCN6C[C@H](F)C7)nc5c3F)N3C[C@H]5CC[C@H](N5)[C@@H]3[C@@H](C)C4)c12 [Example 193, 5-ethynyl-6-fluoro-4-((1S,4R,14S,14aS)-10-fluoro-8-(((2R,7aS)-2-fluorotetrahydro-1H-pyrrolizin-7a(5H)-yl)methoxy)-14-methyl-1,2,3,4,5,13,14,14a-octahydro-1,4-epiminoazepino[1′,2′:1,7]azepino[2,3,4-de]quinazolin-11-yl)naphthalen-2-amine]
- IC50 (GDP-loaded KRAS G12D): 0.05 nM
- EC50 (GP2D (KRAS G12D) cells): 4.9 nM

SMILES: C#Cc1c(F)ccc2cccc(-c3nc4c5c(nc(OC[C@@]67CCCN6C[C@@]6(CC6(F)F)C7)nc5c3F)N3C[C@H]5CC[C@H](N5)[C@H]3CC4)c12 [Example 121, (5aR,6S,9R)-12-(((1S,7a'S)-2,2-difluorodihydro-1′H,3′H-spiro[cyclopropane-1,2′-pyrrolizin]-7a′(5′H)-yl)methoxy)-2-(8-ethynyl-7-fluoronaphthalen-1-yl)-1-fluoro-4,5,5a,6,7,8,9,10-octahydro-3,10a,11,13,14-pentaaza-6,9-methanonaphtho[1,8-ab]heptalene]
- IC50 (GDP-loaded KRAS G12D): 0.3 nM
- EC50 (GP2D (KRAS G12D) cells): 7 nM

SMILES: C#Cc1c(F)ccc2cc(O)cc(-c3nc4c5c(nc(OC[C@@]67CCCN6C[C@H](OC(C(F)(F)F)(C(F)(F)F)C(F)(F)F)CC7)nc5c3F)N3C[C@H]5CC[C@H](N5)[C@H]3CO4)c12 [Example 56, 5-ethynyl-6-fluoro-4-((5aS,6S,9R)-1-fluoro-12-(((6R,8aS)-6-((1,1,1,3,3,3-hexafluoro-2-(trifluoromethyl)propan-2-yl)oxy)hexahydroindolizine-8a(1H)-yl)methoxy)-5a,6,7,8,9,10-hexahydro-5H-4-oxa-3,10a,11,13,14-pentaaza-6,9-methanonaphtho[1,8-ab]heptalen-2-yl)naphthalen-2-ol]
- IC50 (GDP-loaded KRAS G12D): 13 nM
- EC50 (GP2D (KRAS G12D) cells): 50 nM
